Measured values: the kinase profiling compilation of Christmann-Franck et al. (2016)

Legend:
Assay in all cases: radiometric filter-binding kinase assay
HIPK2 (human) = HIPK2 (human) (UniProt Q9H2X6); settings: ATP 5 µM
FLT1 (human) = FLT1 (human) (UniProt P17948)
MAPK8 (human) = MAPK8 (human) (UniProt P45983); settings: ATP 20 µM
PLK1 (human) = PLK1 (human) (UniProt P53350); settings: ATP 5 µM
EEF2K (human) = EEF2K (human) (UniProt O00418); settings: ATP 5 µM
MAPK3 (human) = MAPK3 (human) (UniProt P27361); settings: ATP 5 µM
CSNK1D (human) = CSNK1D (human) (UniProt P48730); settings: ATP 20 µM
PAK4 (human) = PAK4 (human) (UniProt O96013); settings: ATP 5 µM
Chain of PAK4 (human) (O96013 whole entry, looked up): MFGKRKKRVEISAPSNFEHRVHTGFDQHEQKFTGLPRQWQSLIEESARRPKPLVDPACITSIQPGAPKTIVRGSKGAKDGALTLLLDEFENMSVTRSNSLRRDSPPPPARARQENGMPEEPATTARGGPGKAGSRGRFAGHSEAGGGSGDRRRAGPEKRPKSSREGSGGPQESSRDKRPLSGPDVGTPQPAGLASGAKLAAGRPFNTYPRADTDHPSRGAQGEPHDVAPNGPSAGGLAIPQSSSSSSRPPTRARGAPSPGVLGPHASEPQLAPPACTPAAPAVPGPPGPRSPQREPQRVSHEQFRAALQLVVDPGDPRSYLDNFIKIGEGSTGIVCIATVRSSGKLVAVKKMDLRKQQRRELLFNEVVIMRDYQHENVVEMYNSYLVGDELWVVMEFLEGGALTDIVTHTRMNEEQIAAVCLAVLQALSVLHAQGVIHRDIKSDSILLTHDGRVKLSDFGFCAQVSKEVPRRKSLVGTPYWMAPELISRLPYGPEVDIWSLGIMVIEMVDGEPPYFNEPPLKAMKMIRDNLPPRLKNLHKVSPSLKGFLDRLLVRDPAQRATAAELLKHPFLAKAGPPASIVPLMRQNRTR

RPS6KA3 KD1 KD2 (human) = RPS6KA3 KD1 KD2 (human) (UniProt P51812); settings: ATP 100 µM
Chain of RPS6KA3 KD1 KD2 (human) (P51812 whole entry, looked up): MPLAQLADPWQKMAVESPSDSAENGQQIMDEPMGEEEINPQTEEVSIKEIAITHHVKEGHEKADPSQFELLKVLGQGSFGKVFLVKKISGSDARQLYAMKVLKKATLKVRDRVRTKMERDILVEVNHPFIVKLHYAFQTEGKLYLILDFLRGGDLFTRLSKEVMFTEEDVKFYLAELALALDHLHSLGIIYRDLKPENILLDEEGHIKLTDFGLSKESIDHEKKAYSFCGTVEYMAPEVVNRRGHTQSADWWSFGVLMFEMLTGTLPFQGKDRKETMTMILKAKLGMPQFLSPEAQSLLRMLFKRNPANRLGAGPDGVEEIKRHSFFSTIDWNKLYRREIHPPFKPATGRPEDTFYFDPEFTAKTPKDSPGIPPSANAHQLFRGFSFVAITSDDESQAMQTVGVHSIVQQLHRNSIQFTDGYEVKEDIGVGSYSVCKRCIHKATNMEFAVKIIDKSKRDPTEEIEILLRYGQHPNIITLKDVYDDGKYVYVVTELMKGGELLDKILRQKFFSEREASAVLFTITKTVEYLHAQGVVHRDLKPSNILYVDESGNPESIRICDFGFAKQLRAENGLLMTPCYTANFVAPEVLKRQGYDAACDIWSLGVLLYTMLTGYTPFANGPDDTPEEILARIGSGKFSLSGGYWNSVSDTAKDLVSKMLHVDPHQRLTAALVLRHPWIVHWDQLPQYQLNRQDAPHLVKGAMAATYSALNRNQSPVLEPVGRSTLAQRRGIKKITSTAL

PIM3 (human) = PIM3 (human) (UniProt Q86V86); settings: ATP 20 µM
DYRK2 (human) = DYRK2 (human) (UniProt Q92630); settings: ATP 50 µM
CSK (human) = CSK (human) (UniProt P41240); settings: ATP 20 µM
NEK6 (human) = NEK6 (human) (UniProt Q9HC98); settings: ATP 50 µM
Chain of NEK6 (human) (Q9HC98 whole entry, looked up): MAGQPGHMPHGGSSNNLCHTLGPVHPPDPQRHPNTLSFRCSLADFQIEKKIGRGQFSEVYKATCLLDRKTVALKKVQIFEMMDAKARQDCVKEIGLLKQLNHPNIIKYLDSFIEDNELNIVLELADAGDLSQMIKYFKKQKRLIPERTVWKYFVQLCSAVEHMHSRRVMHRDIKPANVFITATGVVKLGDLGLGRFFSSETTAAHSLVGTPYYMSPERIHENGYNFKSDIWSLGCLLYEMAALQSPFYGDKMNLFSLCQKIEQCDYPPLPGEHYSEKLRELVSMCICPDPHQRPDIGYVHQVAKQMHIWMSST

CHEK2 (human) = CHEK2 (human) (UniProt O96017); settings: ATP 20 µM
SYK (human) = SYK (human) (UniProt P43405); settings: ATP 20 µM
DYRK3 (human) = DYRK3 (human) (UniProt O43781); settings: ATP 5 µM
Chain of DYRK3 (human) (O43781 whole entry, looked up): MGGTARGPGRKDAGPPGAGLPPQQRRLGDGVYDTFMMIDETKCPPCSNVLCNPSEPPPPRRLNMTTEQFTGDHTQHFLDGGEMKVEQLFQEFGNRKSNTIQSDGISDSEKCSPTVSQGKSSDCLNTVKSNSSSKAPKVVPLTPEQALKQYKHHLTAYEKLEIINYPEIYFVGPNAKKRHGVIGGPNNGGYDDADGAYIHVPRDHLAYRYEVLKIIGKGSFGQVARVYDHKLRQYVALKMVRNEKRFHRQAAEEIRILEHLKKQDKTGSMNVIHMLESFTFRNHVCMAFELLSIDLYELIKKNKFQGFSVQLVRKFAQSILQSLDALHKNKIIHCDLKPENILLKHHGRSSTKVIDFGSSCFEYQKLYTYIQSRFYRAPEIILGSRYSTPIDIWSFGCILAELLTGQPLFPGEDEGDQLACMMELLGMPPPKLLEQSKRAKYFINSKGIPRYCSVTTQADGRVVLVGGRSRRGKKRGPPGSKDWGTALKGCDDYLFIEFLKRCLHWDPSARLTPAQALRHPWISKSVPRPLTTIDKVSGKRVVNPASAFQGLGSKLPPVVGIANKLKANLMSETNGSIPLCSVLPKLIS

IKBKE (human) = IKBKE (human) (UniProt Q14164); settings: ATP 50 µM
Chain of IKBKE (human) (Q14164 whole entry, looked up): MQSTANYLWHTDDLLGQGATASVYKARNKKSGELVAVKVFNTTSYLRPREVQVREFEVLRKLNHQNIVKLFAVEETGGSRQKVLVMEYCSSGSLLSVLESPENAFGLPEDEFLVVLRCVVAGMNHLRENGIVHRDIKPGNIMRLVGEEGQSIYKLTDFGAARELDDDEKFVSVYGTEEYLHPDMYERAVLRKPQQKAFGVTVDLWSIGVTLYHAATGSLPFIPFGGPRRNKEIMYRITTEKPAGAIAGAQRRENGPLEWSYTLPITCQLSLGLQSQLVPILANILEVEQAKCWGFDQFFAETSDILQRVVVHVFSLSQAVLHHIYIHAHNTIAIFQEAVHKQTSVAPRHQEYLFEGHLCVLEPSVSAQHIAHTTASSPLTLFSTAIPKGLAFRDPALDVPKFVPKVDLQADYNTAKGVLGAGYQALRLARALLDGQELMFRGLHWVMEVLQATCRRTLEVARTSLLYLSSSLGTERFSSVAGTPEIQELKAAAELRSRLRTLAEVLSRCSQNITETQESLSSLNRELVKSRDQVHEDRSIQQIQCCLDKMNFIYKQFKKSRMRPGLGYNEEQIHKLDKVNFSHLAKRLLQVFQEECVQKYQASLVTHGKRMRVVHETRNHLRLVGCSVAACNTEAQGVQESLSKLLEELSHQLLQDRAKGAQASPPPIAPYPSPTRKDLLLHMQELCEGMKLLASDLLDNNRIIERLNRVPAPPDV

FGFR1 (human) = FGFR1 (human) (UniProt P11362); settings: ATP 20 µM
MKNK2 (human) = MKNK2 (human) (UniProt Q9HBH9); settings: ATP 50 µM
Chain of MKNK2 (human) (Q9HBH9 whole entry, looked up): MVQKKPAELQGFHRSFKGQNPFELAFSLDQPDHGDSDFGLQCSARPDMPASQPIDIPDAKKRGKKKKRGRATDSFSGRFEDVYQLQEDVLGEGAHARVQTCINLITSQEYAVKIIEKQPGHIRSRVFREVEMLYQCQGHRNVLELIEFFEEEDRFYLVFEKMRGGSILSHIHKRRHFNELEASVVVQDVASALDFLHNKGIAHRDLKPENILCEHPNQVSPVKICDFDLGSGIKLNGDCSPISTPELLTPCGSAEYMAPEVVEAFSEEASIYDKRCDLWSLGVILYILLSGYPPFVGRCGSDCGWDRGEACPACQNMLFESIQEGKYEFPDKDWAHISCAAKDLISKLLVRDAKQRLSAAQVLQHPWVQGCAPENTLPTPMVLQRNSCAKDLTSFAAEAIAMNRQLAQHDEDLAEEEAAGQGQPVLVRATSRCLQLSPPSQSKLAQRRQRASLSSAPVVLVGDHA

[1] = target: PRKAA1 PRKAB2 PRKAG1 (human) (UniProt O43741+Q13131+P54619); settings: ATP 50 µM
PDPK1 (human) = PDPK1 (human) (UniProt O15530)
EPHA2 (human) = EPHA2 (human) (UniProt P29317); settings: ATP 50 µM
PI4KA (human) = PI4KA (human) (UniProt P42356)
PHKG1 (human) = PHKG1 (human) (UniProt Q16816); settings: ATP 50 µM
Chain of PHKG1 (human) (Q16816 whole entry, looked up): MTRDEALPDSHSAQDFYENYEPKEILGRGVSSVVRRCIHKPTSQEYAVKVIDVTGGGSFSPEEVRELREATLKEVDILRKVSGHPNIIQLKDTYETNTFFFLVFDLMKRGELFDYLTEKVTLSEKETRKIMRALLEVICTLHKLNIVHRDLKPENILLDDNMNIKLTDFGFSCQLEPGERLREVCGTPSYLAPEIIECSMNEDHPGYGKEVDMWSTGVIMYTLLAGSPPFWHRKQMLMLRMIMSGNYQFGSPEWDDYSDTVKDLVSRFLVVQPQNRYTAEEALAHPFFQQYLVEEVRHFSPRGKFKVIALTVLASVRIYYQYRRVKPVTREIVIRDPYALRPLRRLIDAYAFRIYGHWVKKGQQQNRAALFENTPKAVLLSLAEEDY

MAPK1 (human) = MAPK1 (human) (UniProt P28482)
[2] = test system: SGK1 (human), O00141 [S422D]; settings: ATP 20 µM
CDK2 CCNA2 (human) = CDK2 CCNA2 (human) (UniProt P20248+P24941); settings: ATP 20 µM

Chain of EEF2K (human) (O00418 whole entry, looked up): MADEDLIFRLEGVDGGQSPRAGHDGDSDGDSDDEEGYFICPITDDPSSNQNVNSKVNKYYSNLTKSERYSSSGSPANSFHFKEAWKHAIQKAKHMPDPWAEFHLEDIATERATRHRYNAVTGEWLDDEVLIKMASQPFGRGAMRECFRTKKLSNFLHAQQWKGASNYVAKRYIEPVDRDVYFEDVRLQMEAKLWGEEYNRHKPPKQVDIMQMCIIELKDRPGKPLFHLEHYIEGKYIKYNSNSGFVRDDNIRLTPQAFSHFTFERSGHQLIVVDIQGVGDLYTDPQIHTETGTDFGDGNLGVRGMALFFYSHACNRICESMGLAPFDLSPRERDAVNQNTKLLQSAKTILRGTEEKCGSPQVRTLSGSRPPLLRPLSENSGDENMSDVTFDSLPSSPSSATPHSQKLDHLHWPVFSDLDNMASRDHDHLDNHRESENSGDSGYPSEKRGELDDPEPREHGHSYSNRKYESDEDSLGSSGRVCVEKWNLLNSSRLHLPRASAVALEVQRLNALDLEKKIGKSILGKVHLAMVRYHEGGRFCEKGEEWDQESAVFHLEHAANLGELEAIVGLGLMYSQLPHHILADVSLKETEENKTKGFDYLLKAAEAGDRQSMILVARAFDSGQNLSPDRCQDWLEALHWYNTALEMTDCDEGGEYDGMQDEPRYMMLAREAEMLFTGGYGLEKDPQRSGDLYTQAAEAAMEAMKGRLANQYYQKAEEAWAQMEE

- residual activity (HIPK2 (human); compound 0.1 µM): 108%
- residual activity (HIPK2 (human); compound 1.0 µM): 86%
- residual activity (HIPK2 (human); compound 10.0 µM): 88%
- residual activity (FLT1 (human); compound 0.1 µM, ATP 20 µM): 97%
- residual activity (FLT1 (human); compound 0.1 µM, ATP 100 µM): 100%
- residual activity (FLT1 (human); compound 1.0 µM, ATP 20 µM): 83%
- residual activity (FLT1 (human); compound 1.0 µM, ATP 100 µM): 65%
- residual activity (FLT1 (human); compound 10.0 µM, ATP 20 µM): 37%
- residual activity (FLT1 (human); compound 10.0 µM, ATP 100 µM): 55%
- residual activity (MAPK8 (human); compound 0.1 µM): 111%
- residual activity (MAPK8 (human); compound 1.0 µM): 107%
- residual activity (MAPK8 (human); compound 10.0 µM): 95%
- residual activity (PLK1 (human); compound 0.1 µM): 98%
- residual activity (PLK1 (human); compound 1.0 µM): 87%
- residual activity (PLK1 (human); compound 10.0 µM): 88%
- residual activity (EEF2K (human); compound 0.1 µM): 90%
- residual activity (EEF2K (human); compound 1.0 µM): 73%
- residual activity (EEF2K (human); compound 10.0 µM): 78%
- residual activity (MAPK3 (human); compound 0.1 µM): 93%
- residual activity (MAPK3 (human); compound 1.0 µM): 85%
- residual activity (MAPK3 (human); compound 10.0 µM): 83%
- residual activity (CSNK1D (human); compound 0.1 µM): 96%
- residual activity (CSNK1D (human); compound 1.0 µM): 93%
- residual activity (CSNK1D (human); compound 10.0 µM): 71%
- residual activity (PAK4 (human); compound 0.1 µM): 93%
- residual activity (PAK4 (human); compound 1.0 µM): 88%
- residual activity (PAK4 (human); compound 10.0 µM): 88%
- IC50 (RPS6KA3 KD1 KD2 (human)): 9.2 µM
- residual activity (RPS6KA3 KD1 KD2 (human); compound 0.1 µM): 100%
- residual activity (RPS6KA3 KD1 KD2 (human); compound 1.0 µM): 86%
- residual activity (RPS6KA3 KD1 KD2 (human); compound 10.0 µM): 45%
- residual activity (PIM3 (human); compound 0.1 µM): 93%
- residual activity (PIM3 (human); compound 1.0 µM): 88%
- residual activity (PIM3 (human); compound 10.0 µM): 83%
- residual activity (DYRK2 (human); compound 0.1 µM): 97%
- residual activity (DYRK2 (human); compound 1.0 µM): 104%
- residual activity (DYRK2 (human); compound 10.0 µM): 101%
- residual activity (CSK (human); compound 0.1 µM): 94%
- residual activity (CSK (human); compound 1.0 µM): 93%
- residual activity (CSK (human); compound 10.0 µM): 98%
- residual activity (NEK6 (human); compound 0.1 µM): 88%
- residual activity (NEK6 (human); compound 1.0 µM): 75%
- residual activity (NEK6 (human); compound 10.0 µM): 80%
- residual activity (CHEK2 (human); compound 0.1 µM): 101%
- residual activity (CHEK2 (human); compound 1.0 µM): 73%
- residual activity (CHEK2 (human); compound 10.0 µM): 72%
- residual activity (SYK (human); compound 0.1 µM): 121%
- residual activity (SYK (human); compound 1.0 µM): 100%
- residual activity (SYK (human); compound 10.0 µM): 91%
- residual activity (DYRK3 (human); compound 0.1 µM): 106%
- residual activity (DYRK3 (human); compound 1.0 µM): 92%
- residual activity (DYRK3 (human); compound 10.0 µM): 83%
- residual activity (IKBKE (human); compound 0.1 µM): 103%
- residual activity (IKBKE (human); compound 1.0 µM): 99%
- residual activity (IKBKE (human); compound 10.0 µM): 96%
- residual activity (FGFR1 (human); compound 0.1 µM): 91%
- residual activity (FGFR1 (human); compound 1.0 µM): 92%
- residual activity (FGFR1 (human); compound 10.0 µM): 63%
- residual activity (MKNK2 (human); compound 0.1 µM): 92%
- residual activity (MKNK2 (human); compound 1.0 µM): 93%
- residual activity (MKNK2 (human); compound 10.0 µM): 79%
- residual activity ([1]; compound 0.1 µM): 100%
- residual activity ([1]; compound 1.0 µM): 88%
- residual activity ([1]; compound 10.0 µM): 46%
- residual activity (PDPK1 (human); compound 0.1 µM, ATP 20 µM): 90%
- residual activity (PDPK1 (human); compound 0.1 µM, ATP 50 µM): 94%
- residual activity (PDPK1 (human); compound 1.0 µM, ATP 20 µM): 86%
- residual activity (PDPK1 (human); compound 1.0 µM, ATP 50 µM): 83%
- residual activity (PDPK1 (human); compound 10.0 µM, ATP 20 µM): 95%
- residual activity (PDPK1 (human); compound 10.0 µM, ATP 50 µM): 67%
- residual activity (EPHA2 (human); compound 0.1 µM): 95%
- residual activity (EPHA2 (human); compound 1.0 µM): 86%
- residual activity (EPHA2 (human); compound 10.0 µM): 89%
- residual activity (PI4KA (human); compound 1.0 µM): 106%
- residual activity (PI4KA (human); compound 10.0 µM): 102%
- residual activity (PHKG1 (human); compound 0.1 µM): 100%
- residual activity (PHKG1 (human); compound 1.0 µM): 96%
- residual activity (PHKG1 (human); compound 10.0 µM): 104%
- residual activity (MAPK1 (human); compound 0.1 µM, ATP 5 µM): 88%
- residual activity (MAPK1 (human); compound 0.1 µM, ATP 50 µM): 93%
- residual activity (MAPK1 (human); compound 1.0 µM, ATP 5 µM): 96%
- residual activity (MAPK1 (human); compound 1.0 µM, ATP 50 µM): 85%
- residual activity (MAPK1 (human); compound 10.0 µM, ATP 5 µM): 77%
- residual activity (MAPK1 (human); compound 10.0 µM, ATP 50 µM): 86%
- residual activity ([2]; compound 0.1 µM): 106%
- residual activity ([2]; compound 1.0 µM): 74%
- residual activity ([2]; compound 10.0 µM): 65%
- residual activity (CDK2 CCNA2 (human); compound 0.1 µM): 102%
- residual activity (CDK2 CCNA2 (human); compound 1.0 µM): 101%
- residual activity (CDK2 CCNA2 (human); compound 10.0 µM): 88%
Structure (SMILES): CCc1cncnc1N1CCN(Cc2nc3cc(C(F)(F)F)ccc3[nH]2)CC1
